Laboratory results reported in patent publication US20230111310A1, “CARBOXYLIC ACID DERIVATIVE-SUBSTITUTED IMINO ARYL COMPOUND, PREPARATION METHOD THEREFOR, HERBICIDAL COMPOSITION AND USE THEREOF” (Qingdao Kingagroot Chemical Compound Co., Ltd., priority 2020, published 2023).

The compounds below were run on Echinochloa crusgalli (assay: Weeding effect in post-emergence stage). Conditions: Dose 15 g/ha; level of fresh weight growth control rate.
Format: in vivo
How it was run: (§1)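 Doses of 500, 250, 125, 60, 30, 15 and 7.5 g/ha, with methyl oleate synergist (1.5 liter/ha) and Tween 80 from acetone solution, applied by spray tower post-emergence (2–3 leaf stage). Weed control scored after 3 further greenhouse weeks, averaged over triplicates.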

Row | Compound | Weeding effect in post-emergence stage, Echinochloa crusgalli
1 | C[C@@H](O/N=C/c1cc(-n2c(=O)cc(C(F)(F)F)n(C)c2=O)c(F)cc1Cl)C(=O)OCc1ccncc1 [303(R)] | 5 (Level 5: growth control rate is above 85%)

Same assay, conditions: Dose 30 g/ha; level of fresh weight growth control rate

Row | Compound | Weeding effect in post-emergence stage, Echinochloa crusgalli
2 | C[C@@H](O/N=C/c1cc(-n2c(=O)cc(C(F)(F)F)n(C)c2=O)c(F)cc1Cl)C(=O)O/N=C/c1ccccc1 [255(R)] | 5 (Level 5: growth control rate is above 85%)
3 | CC(C)=NOCCOC(=O)[C@@H](C)O/N=C/c1cc(-n2c(=O)cc(C(F)(F)F)n(C)c2=O)c(F)cc1Cl [259(R)] | 5 (Level 5: growth control rate is above 85%)
4 | C[C@@H](O/N=C/c1cc(-n2c(=O)cc(C(F)(F)F)n(C)c2=O)c(F)cc1Cl)C(=O)OCC1OCCO1 [266(R)] | 5 (Level 5: growth control rate is above 85%)
5 | C[C@@H](O/N=C/c1cc(-n2c(=O)cc(C(F)(F)F)n(C)c2=O)c(F)cc1Cl)C(=O)OCc1cccs1 [268(R)] | 5 (Level 5: growth control rate is above 85%)
6 | C[C@@H](O/N=C/c1cc(-n2c(=O)cc(C(F)(F)F)n(C)c2=O)c(F)cc1Cl)C(=O)OCc1cccc(F)c1 [285(R)] | 5 (Level 5: growth control rate is above 85%)
7 | C[C@@H](O/N=C/c1cc(-n2c(=O)cc(C(F)(F)F)n(C)c2=O)c(F)cc1Cl)C(=O)OCc1ccc(F)cc1 [286(R)] | 5 (Level 5: growth control rate is above 85%)

Same assay, conditions: Dose 60 g/ha; level of fresh weight growth control rate

Row | Compound | Weeding effect in post-emergence stage, Echinochloa crusgalli
8 | C[C@@H](O/N=C/c1cc(-n2c(=O)cc(C(F)(F)F)n(C)c2=O)c(F)cc1Cl)C(=O)ON1C(=O)CCC1=O [263(R)] | 5 (Level 5: growth control rate is above 85%)

What follows are compounds tested on Digitaria sanguinalis (assay: Weeding effect in post-emergence stage). Conditions: Dose 15 g/ha; level of fresh weight growth control rate.
Format: in vivo
How it was run: as §1

Row | Compound | Weeding effect in post-emergence stage, Digitaria sanguinalis
9 | C[C@@H](O/N=C/c1cc(-n2c(=O)cc(C(F)(F)F)n(C)c2=O)c(F)cc1Cl)C(=O)OCc1ccncc1 [303(R)] | 5 (Level 5: growth control rate is above 85%)

Same assay, conditions: Dose 30 g/ha; level of fresh weight growth control rate

Row | Compound | Weeding effect in post-emergence stage, Digitaria sanguinalis
10 | C[C@@H](O/N=C/c1cc(-n2c(=O)cc(C(F)(F)F)n(C)c2=O)c(F)cc1Cl)C(=O)O/N=C/c1ccccc1 [255(R)] | 5 (Level 5: growth control rate is above 85%)
11 | CC(C)=NOCCOC(=O)[C@@H](C)O/N=C/c1cc(-n2c(=O)cc(C(F)(F)F)n(C)c2=O)c(F)cc1Cl [259(R)] | 5 (Level 5: growth control rate is above 85%)
12 | C[C@@H](O/N=C/c1cc(-n2c(=O)cc(C(F)(F)F)n(C)c2=O)c(F)cc1Cl)C(=O)OCC1OCCO1 [266(R)] | 5 (Level 5: growth control rate is above 85%)
13 | C[C@@H](O/N=C/c1cc(-n2c(=O)cc(C(F)(F)F)n(C)c2=O)c(F)cc1Cl)C(=O)OCc1cccs1 [268(R)] | 5 (Level 5: growth control rate is above 85%)
14 | C[C@@H](O/N=C/c1cc(-n2c(=O)cc(C(F)(F)F)n(C)c2=O)c(F)cc1Cl)C(=O)OCc1cccc(F)c1 [285(R)] | 5 (Level 5: growth control rate is above 85%)
15 | C[C@@H](O/N=C/c1cc(-n2c(=O)cc(C(F)(F)F)n(C)c2=O)c(F)cc1Cl)C(=O)OCc1ccc(F)cc1 [286(R)] | 5 (Level 5: growth control rate is above 85%)

Same assay, conditions: Dose 60 g/ha; level of fresh weight growth control rate

Row | Compound | Weeding effect in post-emergence stage, Digitaria sanguinalis
16 | C[C@@H](O/N=C/c1cc(-n2c(=O)cc(C(F)(F)F)n(C)c2=O)c(F)cc1Cl)C(=O)ON1C(=O)CCC1=O [263(R)] | 5 (Level 5: growth control rate is above 85%)

These compounds were tested on Setaria viridis (assay: Weeding effect in post-emergence stage). Conditions: Dose 15 g/ha; level of fresh weight growth control rate.
Format: in vivo
How it was run: as §1

Row | Compound | Weeding effect in post-emergence stage, Setaria viridis
17 | C[C@@H](O/N=C/c1cc(-n2c(=O)cc(C(F)(F)F)n(C)c2=O)c(F)cc1Cl)C(=O)OCc1ccncc1 [303(R)] | 5 (Level 5: growth control rate is above 85%)

Same assay, conditions: Dose 30 g/ha; level of fresh weight growth control rate

Row | Compound | Weeding effect in post-emergence stage, Setaria viridis
18 | C[C@@H](O/N=C/c1cc(-n2c(=O)cc(C(F)(F)F)n(C)c2=O)c(F)cc1Cl)C(=O)O/N=C/c1ccccc1 [255(R)] | 5 (Level 5: growth control rate is above 85%)
19 | CC(C)=NOCCOC(=O)[C@@H](C)O/N=C/c1cc(-n2c(=O)cc(C(F)(F)F)n(C)c2=O)c(F)cc1Cl [259(R)] | 5 (Level 5: growth control rate is above 85%)
20 | C[C@@H](O/N=C/c1cc(-n2c(=O)cc(C(F)(F)F)n(C)c2=O)c(F)cc1Cl)C(=O)OCC1OCCO1 [266(R)] | 5 (Level 5: growth control rate is above 85%)
21 | C[C@@H](O/N=C/c1cc(-n2c(=O)cc(C(F)(F)F)n(C)c2=O)c(F)cc1Cl)C(=O)OCc1cccs1 [268(R)] | 5 (Level 5: growth control rate is above 85%)
22 | C[C@@H](O/N=C/c1cc(-n2c(=O)cc(C(F)(F)F)n(C)c2=O)c(F)cc1Cl)C(=O)OCc1cccc(F)c1 [285(R)] | 5 (Level 5: growth control rate is above 85%)
23 | C[C@@H](O/N=C/c1cc(-n2c(=O)cc(C(F)(F)F)n(C)c2=O)c(F)cc1Cl)C(=O)OCc1ccc(F)cc1 [286(R)] | 5 (Level 5: growth control rate is above 85%)

Same assay, conditions: Dose 60 g/ha; level of fresh weight growth control rate

Row | Compound | Weeding effect in post-emergence stage, Setaria viridis
24 | C[C@@H](O/N=C/c1cc(-n2c(=O)cc(C(F)(F)F)n(C)c2=O)c(F)cc1Cl)C(=O)ON1C(=O)CCC1=O [263(R)] | 5 (Level 5: growth control rate is above 85%)

These compounds were tested on Eleusine indica (assay: Weeding effect in post-emergence stage). Conditions: Dose 15 g/ha; level of fresh weight growth control rate.
Format: in vivo
How it was run: as §1

Row | Compound | Weeding effect in post-emergence stage, Eleusine indica
25 | C[C@@H](O/N=C/c1cc(-n2c(=O)cc(C(F)(F)F)n(C)c2=O)c(F)cc1Cl)C(=O)OCc1ccncc1 [303(R)] | 5 (Level 5: growth control rate is above 85%)

Same assay, conditions: Dose 30 g/ha; level of fresh weight growth control rate

Row | Compound | Weeding effect in post-emergence stage, Eleusine indica
26 | C[C@@H](O/N=C/c1cc(-n2c(=O)cc(C(F)(F)F)n(C)c2=O)c(F)cc1Cl)C(=O)O/N=C/c1ccccc1 [255(R)] | 5 (Level 5: growth control rate is above 85%)
27 | CC(C)=NOCCOC(=O)[C@@H](C)O/N=C/c1cc(-n2c(=O)cc(C(F)(F)F)n(C)c2=O)c(F)cc1Cl [259(R)] | 5 (Level 5: growth control rate is above 85%)
28 | C[C@@H](O/N=C/c1cc(-n2c(=O)cc(C(F)(F)F)n(C)c2=O)c(F)cc1Cl)C(=O)OCC1OCCO1 [266(R)] | 5 (Level 5: growth control rate is above 85%)
29 | C[C@@H](O/N=C/c1cc(-n2c(=O)cc(C(F)(F)F)n(C)c2=O)c(F)cc1Cl)C(=O)OCc1cccs1 [268(R)] | 5 (Level 5: growth control rate is above 85%)
30 | C[C@@H](O/N=C/c1cc(-n2c(=O)cc(C(F)(F)F)n(C)c2=O)c(F)cc1Cl)C(=O)OCc1cccc(F)c1 [285(R)] | 5 (Level 5: growth control rate is above 85%)
31 | C[C@@H](O/N=C/c1cc(-n2c(=O)cc(C(F)(F)F)n(C)c2=O)c(F)cc1Cl)C(=O)OCc1ccc(F)cc1 [286(R)] | 5 (Level 5: growth control rate is above 85%)

Same assay, conditions: Dose 60 g/ha; level of fresh weight growth control rate

Row | Compound | Weeding effect in post-emergence stage, Eleusine indica
32 | C[C@@H](O/N=C/c1cc(-n2c(=O)cc(C(F)(F)F)n(C)c2=O)c(F)cc1Cl)C(=O)ON1C(=O)CCC1=O [263(R)] | 5 (Level 5: growth control rate is above 85%)

The compounds below were run on Alopecurus japonicus (assay: Weeding effect in post-emergence stage). Conditions: Dose 15 g/ha; level of fresh weight growth control rate.
Format: in vivo
How it was run: as §1

Row | Compound | Weeding effect in post-emergence stage, Alopecurus japonicus
33 | C[C@@H](O/N=C/c1cc(-n2c(=O)cc(C(F)(F)F)n(C)c2=O)c(F)cc1Cl)C(=O)OCc1ccncc1 [303(R)] | 5 (Level 5: growth control rate is above 85%)

Same assay, conditions: Dose 30 g/ha; level of fresh weight growth control rate

Row | Compound | Weeding effect in post-emergence stage, Alopecurus japonicus
34 | C[C@@H](O/N=C/c1cc(-n2c(=O)cc(C(F)(F)F)n(C)c2=O)c(F)cc1Cl)C(=O)O/N=C/c1ccccc1 [255(R)] | 5 (Level 5: growth control rate is above 85%)
35 | CC(C)=NOCCOC(=O)[C@@H](C)O/N=C/c1cc(-n2c(=O)cc(C(F)(F)F)n(C)c2=O)c(F)cc1Cl [259(R)] | 5 (Level 5: growth control rate is above 85%)
36 | C[C@@H](O/N=C/c1cc(-n2c(=O)cc(C(F)(F)F)n(C)c2=O)c(F)cc1Cl)C(=O)OCC1OCCO1 [266(R)] | 5 (Level 5: growth control rate is above 85%)
37 | C[C@@H](O/N=C/c1cc(-n2c(=O)cc(C(F)(F)F)n(C)c2=O)c(F)cc1Cl)C(=O)OCc1cccs1 [268(R)] | 5 (Level 5: growth control rate is above 85%)
38 | C[C@@H](O/N=C/c1cc(-n2c(=O)cc(C(F)(F)F)n(C)c2=O)c(F)cc1Cl)C(=O)OCc1cccc(F)c1 [285(R)] | 5 (Level 5: growth control rate is above 85%)
39 | C[C@@H](O/N=C/c1cc(-n2c(=O)cc(C(F)(F)F)n(C)c2=O)c(F)cc1Cl)C(=O)OCc1ccc(F)cc1 [286(R)] | 5 (Level 5: growth control rate is above 85%)

Same assay, conditions: Dose 60 g/ha; level of fresh weight growth control rate

Row | Compound | Weeding effect in post-emergence stage, Alopecurus japonicus
40 | C[C@@H](O/N=C/c1cc(-n2c(=O)cc(C(F)(F)F)n(C)c2=O)c(F)cc1Cl)C(=O)ON1C(=O)CCC1=O [263(R)] | 5 (Level 5: growth control rate is above 85%)

What follows are compounds tested on Abutilon theophrasti (assay: Weeding effect in post-emergence stage). Conditions: Dose 15 g/ha; level of fresh weight growth control rate.
Format: in vivo
How it was run: as §1

Row | Compound | Weeding effect in post-emergence stage, Abutilon theophrasti
41 | C[C@@H](O/N=C/c1cc(-n2c(=O)cc(C(F)(F)F)n(C)c2=O)c(F)cc1Cl)C(=O)OCc1ccncc1 [303(R)] | 5 (Level 5: growth control rate is above 85%)

Same assay, conditions: Dose 30 g/ha; level of fresh weight growth control rate

Row | Compound | Weeding effect in post-emergence stage, Abutilon theophrasti
42 | C[C@@H](O/N=C/c1cc(-n2c(=O)cc(C(F)(F)F)n(C)c2=O)c(F)cc1Cl)C(=O)O/N=C/c1ccccc1 [255(R)] | 5 (Level 5: growth control rate is above 85%)
43 | CC(C)=NOCCOC(=O)[C@@H](C)O/N=C/c1cc(-n2c(=O)cc(C(F)(F)F)n(C)c2=O)c(F)cc1Cl [259(R)] | 5 (Level 5: growth control rate is above 85%)
44 | C[C@@H](O/N=C/c1cc(-n2c(=O)cc(C(F)(F)F)n(C)c2=O)c(F)cc1Cl)C(=O)OCC1OCCO1 [266(R)] | 5 (Level 5: growth control rate is above 85%)
45 | C[C@@H](O/N=C/c1cc(-n2c(=O)cc(C(F)(F)F)n(C)c2=O)c(F)cc1Cl)C(=O)OCc1cccs1 [268(R)] | 5 (Level 5: growth control rate is above 85%)
46 | C[C@@H](O/N=C/c1cc(-n2c(=O)cc(C(F)(F)F)n(C)c2=O)c(F)cc1Cl)C(=O)OCc1cccc(F)c1 [285(R)] | 5 (Level 5: growth control rate is above 85%)
47 | C[C@@H](O/N=C/c1cc(-n2c(=O)cc(C(F)(F)F)n(C)c2=O)c(F)cc1Cl)C(=O)OCc1ccc(F)cc1 [286(R)] | 5 (Level 5: growth control rate is above 85%)

Same assay, conditions: Dose 60 g/ha; level of fresh weight growth control rate

Row | Compound | Weeding effect in post-emergence stage, Abutilon theophrasti
48 | C[C@@H](O/N=C/c1cc(-n2c(=O)cc(C(F)(F)F)n(C)c2=O)c(F)cc1Cl)C(=O)ON1C(=O)CCC1=O [263(R)] | 5 (Level 5: growth control rate is above 85%)
